pIC50: −log10 of the molar value. Like-named read-outs stand apart in the source and are kept apart here.
What was measured:
[1] = target: T1, APOL1 (Homo sapiens, UniProt O14791); test: Multi-Tox Assay (MultiTox-Fluor Multiplex Cytotoxicity Assay in tet-inducible APOL1 T-REx-HEK293 cells; Table 46 does not say which APOL1 variant G0/G1/G2); format: cell-based; details: APOL1 variant not given; for pIC50: IP50 = IC50 for cell proliferation
T1 sequence (O14791 1-398 S342G/I384M): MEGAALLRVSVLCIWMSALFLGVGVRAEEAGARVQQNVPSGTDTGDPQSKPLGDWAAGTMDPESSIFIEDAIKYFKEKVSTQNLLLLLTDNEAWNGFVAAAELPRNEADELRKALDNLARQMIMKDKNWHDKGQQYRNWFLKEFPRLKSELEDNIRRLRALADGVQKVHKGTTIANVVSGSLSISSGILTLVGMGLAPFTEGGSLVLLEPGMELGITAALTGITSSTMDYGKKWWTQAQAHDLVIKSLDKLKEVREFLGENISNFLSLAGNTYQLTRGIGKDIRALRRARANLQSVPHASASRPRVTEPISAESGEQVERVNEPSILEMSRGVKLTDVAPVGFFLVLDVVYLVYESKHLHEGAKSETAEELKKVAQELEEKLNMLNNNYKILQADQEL

[2] = target: T2, APOL1 G1 (Homo sapiens, UniProt O14791, I384M/S342G); test: Trypanosoma brucei brucei Lysis Assay Using APOL1 Recombinant Protein (AlamarBlue viability readout); format: cell-based; details: for pIC50: IP50 = IC50 for cell proliferation, read-out: Trypanosome Assay IP50; for Emax: read-out: Trypanosome Assay Max Activity (%)
T2 sequence (O14791 28-398 S342G/I384M): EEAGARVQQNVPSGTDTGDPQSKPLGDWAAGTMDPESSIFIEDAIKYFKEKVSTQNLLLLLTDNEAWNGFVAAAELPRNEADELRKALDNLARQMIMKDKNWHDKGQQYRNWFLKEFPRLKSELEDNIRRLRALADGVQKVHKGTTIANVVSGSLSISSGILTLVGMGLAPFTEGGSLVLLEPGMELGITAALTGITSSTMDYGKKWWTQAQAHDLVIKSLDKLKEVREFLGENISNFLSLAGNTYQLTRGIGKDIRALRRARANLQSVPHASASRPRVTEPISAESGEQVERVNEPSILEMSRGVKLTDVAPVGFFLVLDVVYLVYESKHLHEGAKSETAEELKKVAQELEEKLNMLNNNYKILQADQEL
Text: Trypanosoma brucei brucei is a blood stream parasite to which human, gorillas, and baboons are immune due to the presence of the APOL1 protein in their HDL particles. The protein is uptaken by the parasite via the TbHpHb receptor located in its flagellar pocket and is bonded by the Hpr protein contained in the HDL particles which triggers the receptor endocytosis by the parasite.
Following endocytosis, the formed vesicle containing the HDL particle matures from early to late endosome, and subsequently to lysosome. The concomitant pH change in the lumen of the vesicle triggers the insertion of the APOL1 protein into the membrane of the late endosome/lysosome and hereby triggers lysosomal membrane permeabilization and as a further downstream event, trypanosome lysis. Trypanosoma brucei brucei is sensitive to lysis by all three APOL1 variants (G0, G1, and G2).
The Trypanosoma brucei brucei lysis assay is a lysis assay of the parasite using recombinant APOL1 protein variant followed by a fluorescent detection method of viability by the addition of AlamarBlue reagent to the assay well, a general metabolic redox indicator (AlamarBlue assay).
Briefly, the AlamarBlue active compound, resazurin, a blue, water soluble, non-toxic and cell permeable molecule, which can be followed by absorbance, is reduced by various metabolic pathways into resorufin, a red compound which can be followed by either absorbance or fluorescence. The assay allows the calculation of the percent viability (percent of living Trypanosomes remaining in each well) at the end of a lysis relative to the untreated condition by interpolation of fluorescent values (FLU) on a standard curve with a known amount of seeded trypanosome/well.
Trypanosoma brucei brucei (ATCC, Cat. No. PRA-382)
• Lister 427 VSG 221 bloodstream form.
Equipment • E1-Clip Tip pipette 12 channel adjustable 2-125 μL, Cat. No. 4672070BT • ThermoFisher MultiDrop 384, Cat. No. 5840300 • Multidrop • Agilent Bravo, Cat. No. G5409A • Bravo • SpectraMax M5 Assay Ready Plates (ARPs) • ARPs comes in two formats: • […] final top concentration with a 2.5 fold dilution down. • […] final top concentration with a 3 fold dilution down. • Both have a 10 point Dose response. • 0.1% DMSO final in the Black Assay Plate. • Compounds are diluted 1000 fold in the Black Assay Plate. • Each plate is designed for 14 compounds in duplicate. • In the final Black Assay Plate: • Column 1: Media only (no APOL1) (100% viable) • Column 2-23: 0.05 μg/mL APOL1 (˜EC90) (10% viable with APOL1) • Column 24: 0.1 μg/mL APOL1 (EC100) (Approx. […] Step 2, Day 4 • Centrifuge at 800×g for 5 minutes at room temperature. • Resuspend in 1 mL media. • Make a 1:25 fold dilution (10 μL/240 μL media). • Count on a hemocytometer (after adding parasites). • Let sit for 1-2 minutes for the parasites to settle. • Count should be approximately 100 viable motile parasites/16 grid or approximately 25×10^6 parasites/flask. • Passage the parasites by adding 1×10^6 parasites/T75 flask in 20 mL media. • Passage the parasites by adding 2.33×10^6 parasites/T175 flask in 46.6 mL media. • For every T75 flask should make enough for approximately 1.5×384 well assay plates. • For every T175 flask should make enough for approximately 3.8×384 well assay plates. Step 3, Day 6 • Centrifuge at 800×g for 5 minutes. • Resuspend in 3 mL assay media (No phenol red, no FBS) per 75 starting flask. • Resuspend in 7 mL assay media (No phenol red, no FBS) per 175 flask • Make a 1:25 fold dilution. • Count by hemocytometer. • Every T75 flask set up should have approximately 75×10^6 parasites/flask (verify doubling time=8.7 hours±1 hour). • Every T175 flask set up should have approximately 175×10^6 parasites/flask (verify doubling time=8.7 hours±1 hour). • Require 46×10^6 parasites per 384 well plate (at 120,000 parasites per well). […]

Structure (SMILES)	pIC50 [1]	pIC50 ([2]; Trypanosome Assay)	Emax ([2]; Trypanosome Assay) [%]	Multi-Tox Assay Max Activity (%) [1] [%]	Emax [2] [%]	IC90 [1] [µM]
CC(C)C1CC2(CC(c3cn(C)nn3)N1)OCCc1cc(C(F)(F)F)sc12 (stereo not shown) [Compound 191]	6.30 to 7.30	6.30 to 7.30	108	–	–	–
COc1nn(C)cc1[C@@H]1C[C@]2(C[C@H](C)N1)OCCc1cc(Cl)sc12 (racemic) [Compound 154]	< 6.30	< 6.30	96.5	–	–	–
CCc1c[nH]c([C@@H]2C[C@]3(C[C@H](C)N2)OCCc2cc(Cl)sc23)n1 (racemic) [Compound 153]	6.30 to 7.30	< 6.30	89.5	96.0	–	–
CC1CC2(CC(C3CCOCC3)N1)OCCc1cc(Cl)sc12 (mixture of isomers) [Compound 216]	6.30 to 7.30	6.30 to 7.30	104	–	–	–
COc1cccc(C2CC3(CC(C)N2)OCCc2cc(Cl)sc23)n1 (mixture of isomers) [Compound 135]	6.30 to 7.30	6.30 to 7.30	94	–	–	–
C[C@@H]1CC2(C[C@H](C)N1)OCCc1cc(Br)sc12 (single isomer, unassigned) [Compound 197]	6.30 to 7.30	6.30 to 7.30	–	–	106	–
COc1nccc([C@@H]2C[C@]3(C[C@H](C)N2)OCCc2cc(Cl)sc23)n1 (racemic) [Compound 110]	> 7.30	6.30 to 7.30	115	–	–	–
Cc1n[nH]c2ncc([C@@H]3C[C@]4(C[C@H](C)N3)OCCc3cc(Cl)sc34)cc12 (racemic) [Compound 48]	> 7.30	> 7.30	102	99.0	–	–
C[C@H]1C[C@@]2(C[C@@H](c3cn(C)nn3)N1)OCCc1c2sc(C(F)(F)F)c1CO [Compound 17, [(2′S,6′S, 7S)-2′-methyl-6′-(1-methyltriazol-4-yl)-2-(trifluoromethyl)spiro[4,5-dihydrothieno[2,3-c]pyran-7,4′-piperidine]-3-yl]methanol]	> 7.30	6.30 to 7.30	102	–	–	–
CC(=O)Nc1cccc([C@@H]2C[C@]3(C[C@H](C)N2)OCCc2cc(Cl)sc23)c1 (racemic) [Compound 113]	> 7.30	6.30 to 7.30	97	100.0	–	–
Cc1ncoc1[C@@H]1C[C@]2(C[C@H](C)N1)OCCc1cc(Cl)sc12 (racemic) [Compound 157]	6.30 to 7.30	< 6.30	95	96.3	–	–
CC1COC2(C[C@@H](c3cn(C)nn3)N[C@@H](C)C2)c2cc(Cl)sc21 (stereo in doubt) [Compound 12]	> 7.30	> 7.30	102	99.3	–	–
C[C@H]1C[C@@]2(C[C@@H](c3cnc4n3CCOC4)N1)OCCc1cc(Cl)sc12 (racemic) [Compound 149]	6.30 to 7.30	< 6.30	95	–	–	–
CC1COC2(C[C@@H](c3cn(C)nn3)N[C@@H](C)C2)c2cc(C(F)(F)F)sc21 (stereo in doubt) [Compound 14]	> 7.30	> 7.30	102	–	–	–
C[C@H]1C[C@@]2(C[C@@H](c3cn4c(n3)COCC4)N1)OCCc1cc(Cl)sc12 (racemic) [Compound 74]	> 7.30	6.30 to 7.30	110	–	–	–
CC(C)Cc1cc2c(s1)C1(C[C@@H](C)N[C@@H](C)C1)OCC2 (single isomer, unassigned) [Compound 201]	6.30 to 7.30	< 6.30	76.7	–	–	–
CC(C)C1CC2(CC(c3cn(C)nn3)N1)OCCc1cc(Cl)sc12 (stereo not shown) [Compound 188]	6.30 to 7.30	6.30 to 7.30	108	99.0	–	0.05 to 0.5
C[C@H]1C[C@@]2(C[C@@H](c3cc(C4CC4)n[nH]3)N1)OCCc1cc(Cl)sc12 (racemic) [Compound 120]	> 7.30	6.30 to 7.30	91.5	99.0	–	–
C[C@H]1C[C@@]2(C[C@@H](c3ccc(O)nn3)N1)OCCc1cc(Cl)sc12 (stereo in doubt) [Compound 86]	> 7.30	> 7.30	112	–	–	–
Cc1ccc([C@@H]2C[C@]3(C[C@H](C)N2)OCCc2cc(Cl)sc23)cn1 (racemic) [Compound 55]	> 7.30	> 7.30	112	99.7	–	–
Cc1nc([C@@H]2C[C@]3(C[C@H](C)N2)OCCc2cc(Cl)sc23)[nH]c1C (racemic) [Compound 150]	6.30 to 7.30	< 6.30	87	96.3	–	–
C[C@H]1C[C@@]2(C[C@@H](c3cccc(S(C)(=O)=O)c3)N1)OCCc1cc(Cl)sc12 (racemic) [Compound 146]	6.30 to 7.30	6.30 to 7.30	88	–	–	–
C[C@H]1C[C@@]2(C[C@@H](c3cocn3)N1)OCCc1cc(Cl)sc12 (racemic) [Compound 79]	> 7.30	> 7.30	97.5	–	–	–
Cc1ncc([C@@H]2C[C@]3(C[C@H](C)N2)OCCc2cc(Cl)sc23)cn1 (racemic) [Compound 82]	> 7.30	> 7.30	106	–	–	–
CCC1CC2(CC(c3cn(C)nn3)N1)OCCc1cc(C(F)(F)F)sc12 (stereo not shown) [Compound 187, 2′-ethyl-6′-(1-methyltriazol-4-yl)-2-(trifluoromethyl)spiro[4,5-dihydrothieno[2,3-c]pyran-7,4′-piperidine]]	> 7.30	6.30 to 7.30	106	100.0	–	< 0.05
C[C@H]1C[C@@]2(C[C@@H](c3ccc[nH]c3=O)N1)OCCc1cc(Cl)sc12 (racemic) [Compound 121]	> 7.30	6.30 to 7.30	97.5	99.0	–	–
C[C@H]1C[C@@]2(C[C@@H](c3cccc4[nH]c(=O)oc34)N1)OCCc1cc(Cl)sc12 (racemic) [Compound 141]	6.30 to 7.30	6.30 to 7.30	90	–	–	–
